Data: patent publication US20140045856A1, “4-Methyl-2,3,5,9,9b-pentaaza-cyclopenta[a]naphthalenes” (BOEHRINGER INGELHEIM INTERNATIONAL GMBH, priority 2012, published 2014)

Molecular target: PDE10 (Homo sapiens, UniProt Q9Y233)
Assay: PDE10 assay with fluorescent substrate (IMAP, fluorescence polarization)
Format: biochemical
Conditions: not given

PDE10, sequence (Q9Y233 whole entry, species assumed): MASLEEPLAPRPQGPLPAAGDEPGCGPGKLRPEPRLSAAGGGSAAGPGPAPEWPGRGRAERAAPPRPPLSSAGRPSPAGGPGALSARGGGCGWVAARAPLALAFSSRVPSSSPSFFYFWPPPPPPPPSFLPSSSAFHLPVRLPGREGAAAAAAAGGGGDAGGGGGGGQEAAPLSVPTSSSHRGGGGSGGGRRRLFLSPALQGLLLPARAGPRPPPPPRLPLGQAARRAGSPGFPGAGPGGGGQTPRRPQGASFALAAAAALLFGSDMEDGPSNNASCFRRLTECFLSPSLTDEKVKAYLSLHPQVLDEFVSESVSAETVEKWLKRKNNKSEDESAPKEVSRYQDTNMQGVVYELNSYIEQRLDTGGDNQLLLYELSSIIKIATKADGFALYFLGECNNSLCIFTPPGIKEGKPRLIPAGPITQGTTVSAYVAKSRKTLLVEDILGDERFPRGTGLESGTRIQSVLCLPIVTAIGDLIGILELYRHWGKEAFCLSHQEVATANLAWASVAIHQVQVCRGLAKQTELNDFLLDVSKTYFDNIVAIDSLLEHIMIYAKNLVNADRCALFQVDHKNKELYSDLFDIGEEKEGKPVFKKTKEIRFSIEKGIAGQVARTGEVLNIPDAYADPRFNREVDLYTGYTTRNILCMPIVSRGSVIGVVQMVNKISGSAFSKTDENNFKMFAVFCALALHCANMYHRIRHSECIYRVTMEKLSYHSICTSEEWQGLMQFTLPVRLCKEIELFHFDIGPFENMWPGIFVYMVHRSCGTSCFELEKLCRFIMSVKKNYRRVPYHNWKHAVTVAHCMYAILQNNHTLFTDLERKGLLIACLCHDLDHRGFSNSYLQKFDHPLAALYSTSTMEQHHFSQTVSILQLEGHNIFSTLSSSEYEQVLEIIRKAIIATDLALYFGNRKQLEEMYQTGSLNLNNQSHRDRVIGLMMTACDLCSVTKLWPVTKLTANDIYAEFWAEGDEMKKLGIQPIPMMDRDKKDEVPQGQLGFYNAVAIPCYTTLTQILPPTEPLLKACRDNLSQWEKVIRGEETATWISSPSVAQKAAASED

IC50 [nM]	SMILES
61	Cc1nc2ccc(C3CC3)nc2n2c(-c3cc(OC4COCC4O)ccc3Cl)nnc12 (racemic) [Example 56]
1540	Cc1nc2ccc(C3CC3)nc2n2c(-c3cc(C4(O)CCOCC4O)ccc3F)nnc12 (racemic) [Example 105]
2440	Cc1nc2cccnc2n2c(-c3cc(OC4COCC4O)ccc3Cl)nnc12 (single isomer, unassigned) [Example 55a]
5940	Cc1nc2ccc(C3CC3)nc2n2c(-c3cc(C4(O)CCOC4)ccc3Cl)nnc12 (single isomer, unassigned) [Example 97a]
891	Cc1nc2ccc(C3CC3)nc2n2c(-c3cc(C4(O)CCOC4)ccc3Cl)nnc12 (single isomer, unassigned) [Example 97b]
1560	Cc1nc2cccnc2n2c(-c3cc(C4(O)CCOC4)ccc3Cl)nnc12 (single isomer, unassigned) [Example 98]
1410	Cc1nc2ccc(C(F)(F)F)nc2n2c(-c3cc(OC4COCC4O)ccc3F)nnc12 (single isomer, unassigned) [Example 106a]
2500	Cc1nc2ccc(C(F)(F)F)nc2n2c(-c3cc(OC4COCC4O)ccc3F)nnc12 (single isomer, unassigned) [Example 106b]
262	Cc1nc2ccc(C3CC3)nc2n2c(-c3cc(OC4CCOCC4O)ccc3F)nnc12 (single isomer, unassigned) [Example 108c]
630	Cc1nc2ccc(C3CC3)nc2n2c(-c3cc(OC4CCOCC4O)ccc3F)nnc12 (single isomer, unassigned) [Example 108d]
1670	Cc1nc2ccc(C3CC3)nc2n2c(-c3cc(OC4COCCC4O)ccc3Cl)nnc12 (single isomer, unassigned) [Example 109a]
1090	Cc1nc2ccc(C3CC3)nc2n2c(-c3cc(OC4CCOCC4O)ccc3Cl)nnc12 (single isomer, unassigned) [Example 109b]
1360	Cc1nc2ccc(C3CC3)nc2n2c(-c3cc(OC4CCOCC4O)ccc3Cl)nnc12 (single isomer, unassigned) [Example 109c]
1830	Cc1nc2ccc(C3CC3)nc2n2c(-c3cc(OC4COCCC4O)ccc3Cl)nnc12 (single isomer, unassigned) [Example 109d]
> 10000	Cc1nc2ccc(C(F)(F)F)nc2n2c(-c3cc(OC4COCCC4O)ccc3F)nnc12 (single isomer, unassigned) [Example 110b]

IC50 [nM]	SMILES
5	Cc1nc2ccc(C3CC3)nc2n2c(-c3cc(O)ccc3F)nnc12 [Example 5]
10	Cc1ccc(O)cc1-c1nnc2c(C)nc3ccc(C4CC4)nc3n12 [Example 6]
16	Cc1ccc(O)cc1-c1nnc2c(C)nc3ccc(C(C)C)nc3n12 [Example 7]
8	Cc1nc2ccc(C(C)C)nc2n2c(-c3cc(O)ccc3F)nnc12 [Example 8]
15	Cc1nc2ccc(C3CC3)nc2n2c(-c3cc(O)ccc3Cl)nnc12 [Example 9]
123	Cc1cnc2c(c1)nc(C)c1nnc(-c3cc(O)ccc3Cl)n12 [Example 11]
44	Cc1nc2ccc(C(F)(F)F)nc2n2c(-c3cc(O)ccc3Cl)nnc12 [Example 12]
170	Cc1ccc(O)cc1-c1nnc2c(C)nc3ccc(C(F)(F)F)nc3n12 [Example 12a]
4510	Cc1nc2cccnc2n2c(-c3cc(OCC4(O)CC4)ccc3Cl)nnc12 [Example 43a]
2830	Cc1nc2cccnc2n2c(-c3cc(OCC4(O)CCC4)ccc3F)nnc12 [Example 53]
285	Cc1ccc2nc(C)c3nnc(-c4cc(CO)ccc4Cl)n3c2n1 [Example 60]
534	CCCC(O)c1ccc(Cl)c(-c2nnc3c(C)nc4ccc(C)nc4n23)c1 (centres unmarked) [Example 61]
3540	Cc1nc2cccnc2n2c(-c3cc(CCC(C)(C)O)ccc3F)nnc12 [Example 65]
891	Cc1nc2ccc(C3CC3)nc2n2c(-c3cc(CCC(C)(C)O)ccc3Cl)nnc12 [Example 69]
2340	Cc1nc2cccnc2n2c(-c3cc(C4(O)CCOC4)ccc3Cl)nnc12 (centres unmarked) [Example 74]

System: not listed separately
Assay: Metabolic stability in pooled liver microsomes
Format: in vitro ADME
Conditions: human liver microsomes, 37° C., 1 mg/mL microsomal protein, test compound 1 μM, NADPH
Description: The metabolic stability of the compounds according to the invention has been investigated as follows:
The metabolic degradation of the test compound was assayed at 37° C. with pooled liver microsomes from various species. The final incubation volume of 100 μl per time point contains TRIS buffer pH 7.6 at room temperature (0.1 M), magnesium chloride (5 mM), microsomal protein (1 mg/mL for human and dog, 0.5 mg/mL for other species) and the test compound at a final concentration of 1 μM. Following a short preincubation period at 37° C., the reactions were initiated by addition of betanicotinamide adenine dinucleotide phosphate, reduced form (NADPH, 1 mM), and terminated by transferring an aliquot into solvent after different time points. […] The half-life was determined by the slope of the semi-logarithmic plot of the concentration-time profile.

Half-life - t½ [h]	SMILES
2.17	Cc1nc2cccnc2n2c(-c3cc(OC4COCC4O)ccc3Cl)nnc12 (single isomer, unassigned) [Example 55a]

Molecular target: PDE2A (Homo sapiens, UniProt O00408)
Assay: PDE 2A assay with fluorescent substrate (IMAP, fluorescence polarization)
Format: biochemical
Conditions: read-out: PDE2 IC50
Description: c) Phosphodiesterase (PDE) 2A and 10 Assay with Fluorescent Substrate
The PDE reaction cleaves cAMP to AMP. The IMAP system (Molecular Device) using fluorescence polarization (FP) as detection principle was used to measure enzyme activity. A fluorescent labeled cAMP was used as substrate for the reaction, generating a labeled AMP. The fluorescent AMP binds specifically to the large M(III)-based nano-particles which reduces the rotational speed of the substrate and thus increases its polarization.
The inhibition of PDE 2A or 10 enzyme activity was assessed using IMAP-Phosphodiesterase-cAMP fluorescence labeled substrate (Molecular Devices, Order No. R7506), IMAP TR-FRET screening express (Molecular Devices, Order No. R8160, the TR-FRET component will not be used) and PDE 2A or PDE10 protein expressed upon baculovirus infection in SF9 cells. The cells were incubated after infection for ˜3 days and protein production was confirmed by Western Blot. The cells were collected by centrifugation and the pellet frozen in liquid nitrogen before it was resuspended in PBS containing 1% Triton X-100 and protease inhibitors.
All reactions were performed in 384 well plates, Perkin Elmer black optiplates and IMAP reaction buffer with 0.1% Tween20 (kit component)
Compounds were serial diluted in DMSO. With an intermediate dilution step with reaction buffer DMSO concentration was reduced to achieve 1% DMSO in the assay reaction. Setup of the assay started with 10 μl enzyme (˜10 ng/well, depending on prep. batch), 5 μl compound, reaction was started by addition of 5 μl labeled cAMP (30 nM, final concentration), immediately mixed for 15 seconds on a Eppendorf mixmate (2000 rpm) followed by an incubation at room temperature for 90 minutes in the dark. Reaction is stopped by adding of 60 μl binding buffer for FP/cAMP (kit component).
Each assay plate contained wells with vehicle controls (1% DMSO) for the measurement of non-inhibited reaction (=100% control) and wells without enzyme as 0% controls.

PDE2A, sequence (O00408 whole entry, species assumed): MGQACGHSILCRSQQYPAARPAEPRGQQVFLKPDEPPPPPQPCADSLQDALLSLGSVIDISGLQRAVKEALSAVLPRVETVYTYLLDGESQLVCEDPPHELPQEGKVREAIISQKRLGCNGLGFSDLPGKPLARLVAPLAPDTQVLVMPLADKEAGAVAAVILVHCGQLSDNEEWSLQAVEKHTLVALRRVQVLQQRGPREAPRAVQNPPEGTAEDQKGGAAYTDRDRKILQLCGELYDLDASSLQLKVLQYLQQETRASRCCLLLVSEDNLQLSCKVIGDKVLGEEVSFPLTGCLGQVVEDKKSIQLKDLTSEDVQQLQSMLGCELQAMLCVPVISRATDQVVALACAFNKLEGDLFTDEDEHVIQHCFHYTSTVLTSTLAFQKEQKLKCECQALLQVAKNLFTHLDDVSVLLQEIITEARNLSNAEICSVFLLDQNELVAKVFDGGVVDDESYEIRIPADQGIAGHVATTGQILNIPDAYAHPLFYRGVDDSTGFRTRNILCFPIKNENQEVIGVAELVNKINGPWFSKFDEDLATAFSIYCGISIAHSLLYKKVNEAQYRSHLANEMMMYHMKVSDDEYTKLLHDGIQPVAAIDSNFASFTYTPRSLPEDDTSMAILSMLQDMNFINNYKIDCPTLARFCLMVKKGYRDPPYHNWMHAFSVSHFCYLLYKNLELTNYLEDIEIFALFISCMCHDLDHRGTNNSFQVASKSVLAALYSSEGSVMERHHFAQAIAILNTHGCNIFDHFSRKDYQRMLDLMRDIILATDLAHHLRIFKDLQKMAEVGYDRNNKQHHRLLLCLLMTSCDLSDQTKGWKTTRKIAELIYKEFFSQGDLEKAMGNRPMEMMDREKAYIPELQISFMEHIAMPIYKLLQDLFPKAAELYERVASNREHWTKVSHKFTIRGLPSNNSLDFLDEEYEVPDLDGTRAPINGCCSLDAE

IC50 [nM]	SMILES
139	Cc1nc2cccnc2n2c(-c3cc(C4(O)CCOC4)ccc3Cl)nnc12 (single isomer, unassigned) [Example 98]
429	Cc1nc2ccc(C(F)(F)F)nc2n2c(-c3cc(OC4COCC4O)ccc3F)nnc12 (single isomer, unassigned) [Example 106a]
50	Cc1nc2ccc(C(F)(F)F)nc2n2c(-c3cc(OC4COCC4O)ccc3F)nnc12 (single isomer, unassigned) [Example 106b]
14	Cc1nc2ccc(C3CC3)nc2n2c(-c3cc(OC4COCCC4O)ccc3Cl)nnc12 (single isomer, unassigned) [Example 109a]
9	Cc1nc2ccc(C3CC3)nc2n2c(-c3cc(OC4CCOCC4O)ccc3Cl)nnc12 (single isomer, unassigned) [Example 109b]
9	Cc1nc2ccc(C3CC3)nc2n2c(-c3cc(OC4CCOCC4O)ccc3Cl)nnc12 (single isomer, unassigned) [Example 109c]
4	Cc1nc2ccc(C3CC3)nc2n2c(-c3cc(OC4COCCC4O)ccc3Cl)nnc12 (single isomer, unassigned) [Example 109d]
388	Cc1nc2ccc(C(F)(F)F)nc2n2c(-c3cc(OC4COCCC4O)ccc3F)nnc12 (single isomer, unassigned) [Example 110b]
3	Cc1ccc(O)cc1-c1nnc2c(C)nc3ccc(C4CC4)nc3n12 [Example 6]
3	Cc1ccc(O)cc1-c1nnc2c(C)nc3ccc(C(C)C)nc3n12 [Example 7]
2	Cc1nc2ccc(C(C)C)nc2n2c(-c3cc(O)ccc3F)nnc12 [Example 8]
1	Cc1nc2ccc(C3CC3)nc2n2c(-c3cc(O)ccc3Cl)nnc12 [Example 9]
59	Cc1cnc2c(c1)nc(C)c1nnc(-c3cc(O)ccc3Cl)n12 [Example 11]
9	Cc1nc2ccc(C(F)(F)F)nc2n2c(-c3cc(O)ccc3Cl)nnc12 [Example 12]
36	Cc1ccc(O)cc1-c1nnc2c(C)nc3ccc(C(F)(F)F)nc3n12 [Example 12a]
109	Cc1nc2cccnc2n2c(-c3cc(OCC4(O)CC4)ccc3Cl)nnc12 [Example 43a]
140	Cc1nc2cccnc2n2c(-c3cc(OCC4(O)CCC4)ccc3F)nnc12 [Example 53]
4	CCCC(O)c1ccc(Cl)c(-c2nnc3c(C)nc4ccc(C)nc4n23)c1 (centres unmarked) [Example 61]
1	Cc1nc2ccc(C3CC3)nc2n2c(-c3cc(CCC(C)(C)O)ccc3Cl)nnc12 [Example 69]
131	Cc1nc2cccnc2n2c(-c3cc(C4(O)CCOC4)ccc3Cl)nnc12 (centres unmarked) [Example 74]
